The values that follow come from patent publication US20210060016A1, “ANTICANCER AGENT” (JAPANESE FOUNDATION FOR CANCER RESEARCH, priority 2017, published 2021).

The test system of experiment [1] is human colorectal cancer cell line COLO-320DM. Kind of experiment: MTT assay, combination of test compound and other anticancer agents. As to conditions: Examples 9 to 14, COLO-320DM: test compound added at the concentration shown in FIGS. 9 to 14 to irinotecan (SN-38); survival with only irinotecan = 100%. Type of experiment: cell-based. How it is done: The ratio of residual cells in treatment of the human colorectal cancer cell line COLO-320DM with a combination of the compound prepared in each Compound Example (test compound or tankyrase inhibitory compound) and each of the anticancer agents was measured to evaluate the cell killing effect of the combination on the human colorectal cancer cell line COLO-320DM. The combinations of test compounds and anticancer agents are as follows.
(Example 8): combination of the compound prepared in Compound Example 5 and temozolomide, melphalan, gemcitabine, cytarabine (Ara-C), fluorouracil (5-FU), pemetrexed, mercaptopurine, methotrexate, irinotecan (SN-38), etoposide (VP-16), actinomycin D, daunorubicin, doxorubicin, bleomycin, mitoxantrone, oxaliplatin, carboplatin or cisplatin (Example 9): combination of the compound prepared in Compound Example 110 (G007-LK) and irinotecan (SN-38) (Example 10): combination of the compound prepared in Compound Example 11 and irinotecan (SN-38) (Example 11): combination of the compound prepared in Compound Example 19 and irinotecan (SN-38) (Example 12): combination of the compound prepared in Compound Example 101 and irinotecan (SN-38) (Example 13): combination of the compound prepared in Compound Example 1 and irinotecan (SN-38) (Example 14): combination of the compound prepared in Compound Example 113 and irinotecan (SN-38)
Commercially available compounds were used for temozolomide (manufactured by Sigma-Aldric), melphalan (manufactured by Signa-Aldrich), gemcitabine (Gemcitabine hydrochloride; manufactured by Sigma-Aldric), cytarabine (Cytosine β-D-arabinofuranoside (Ara-C); manufactured by Sigma-Aldrich), fluorouracil (5-Fluorouracil (5-FU); manufactured by Sigma-Aldrich), pemetrexed (Pemetrexed disodium heptahydrate; manufactured by Sigma-Aldrich), mercaptopurine (6-Mercaptopurine monohydrate; manufactured by Sigma-Aldrich), methotrexate (Methotrexate hydrate; manufactured by Sigma-Aldrich), irinotecan (7-Ethyl-10-hydroxycamptothecin (SN-38); manufactured by Sigma-Aldrich), etoposide (Etoposide (VP-16); manufactured by Enzo Life Sciences, Inc.), actinomycin D (manufactured by nacalai tesque), daunorubicin (Daunorubicin hydrochloride; Calbiochem), doxorubicin (Doxorubicin hydrochloride; manufactured by Sigma-Aldrich), bleomycin (Bleomycin sulfate; manufactured by Enzo Life Sciences, Inc.), mitoxantrone (Mitoxantrone dihydrochloride; manufactured by Sigma-Aldrich), oxaliplatin (manufactured by Sigma-Aldrich), carboplatin (manufactured by Sigma-Aldrich) and cisplatin (manufactured by Enzo Life Sciences, Inc.).
First, the human colorectal cancer cell line COLO-320DM was suspended in RPMI1640 medium (hereinafter, medium) containing inactivated 10% fetal bovine serum, and the cells were seeded in a 96-well microplate at 350 cells (75 μL) per well. The cells were subjected to stationary culture overnight in a CO2 incubator at 37° C. Thereafter, in Example 8, a medium (25 μL) containing a combination of the compound prepared in Compound Example 5 and each of the anticancer agents was added in triplicate in such a manner that the final concentrations of the test compound (compound prepared in Compound Example 5) were 0 nM or 30 nM and that the final concentrations of each anticancer agent were those shown in Table 14. In Examples 9 to 14, a medium (25 μL) containing a combination of the compound prepared in each of Compound Examples and each of the anticancer agents was added in triplicate in such a manner that the final concentrations of the test compound were 0 nM or those shown in FIGS. 9 to 14. As a control, 25 μL of a medium containing only dimethyl sulfoxide (DMSO) which is a solvent was added. […]
In general terms: Tetrazolium assays rely on reduction of a dye to a coloured formazan, in cell work by metabolically active cells.

Another experiment addresses T1, tankyrase-2 (Homo sapiens, UniProt Q9H2K2).
T1 sequence (Q9H2K2 1-1166): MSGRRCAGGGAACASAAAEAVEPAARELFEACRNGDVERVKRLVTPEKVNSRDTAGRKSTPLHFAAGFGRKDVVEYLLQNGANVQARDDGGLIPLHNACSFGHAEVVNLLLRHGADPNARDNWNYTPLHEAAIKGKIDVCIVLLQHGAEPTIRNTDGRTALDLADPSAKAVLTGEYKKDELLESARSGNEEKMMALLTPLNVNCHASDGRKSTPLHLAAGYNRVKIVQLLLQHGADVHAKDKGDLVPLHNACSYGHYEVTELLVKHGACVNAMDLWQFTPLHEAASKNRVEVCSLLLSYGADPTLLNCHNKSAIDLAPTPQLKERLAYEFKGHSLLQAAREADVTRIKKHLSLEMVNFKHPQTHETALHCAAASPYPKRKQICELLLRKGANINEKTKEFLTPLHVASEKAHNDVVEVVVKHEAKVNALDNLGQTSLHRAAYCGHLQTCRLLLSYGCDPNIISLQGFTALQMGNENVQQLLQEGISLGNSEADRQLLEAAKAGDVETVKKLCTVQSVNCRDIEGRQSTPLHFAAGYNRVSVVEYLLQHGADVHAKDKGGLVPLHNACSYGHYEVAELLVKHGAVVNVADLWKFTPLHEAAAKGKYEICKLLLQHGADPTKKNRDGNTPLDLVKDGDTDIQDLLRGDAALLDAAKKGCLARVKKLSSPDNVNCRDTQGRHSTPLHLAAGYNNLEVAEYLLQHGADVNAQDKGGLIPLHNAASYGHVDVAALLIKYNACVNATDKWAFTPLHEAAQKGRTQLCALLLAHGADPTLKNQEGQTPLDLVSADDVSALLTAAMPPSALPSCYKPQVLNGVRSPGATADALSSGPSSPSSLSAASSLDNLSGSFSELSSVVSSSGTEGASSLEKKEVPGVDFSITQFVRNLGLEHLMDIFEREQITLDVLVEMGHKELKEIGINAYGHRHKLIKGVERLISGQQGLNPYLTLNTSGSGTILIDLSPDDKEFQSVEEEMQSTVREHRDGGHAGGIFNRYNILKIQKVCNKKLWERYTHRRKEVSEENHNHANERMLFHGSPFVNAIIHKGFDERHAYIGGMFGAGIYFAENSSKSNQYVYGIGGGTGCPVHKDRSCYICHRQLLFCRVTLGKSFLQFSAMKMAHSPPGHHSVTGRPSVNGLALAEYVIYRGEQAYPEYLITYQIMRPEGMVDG
Kind of experiment: X-ray diffraction of tankyrase-2 crystal soaked with the compound. Format: binding. From the text: In the present invention, whether the tankyrase inhibitory compound is a nicotinamide-type compound or an adenosine-type compound can be determined by X-ray diffraction, more specifically a method in which a complex is crystallized from a mixed liquid of a tankyrase crystal prepared beforehand and the tankyrase inhibitory compound, and subjected to X-ray diffraction (soaking method), or a method in which a complex is crystallized from a mixed liquid having the tankyrase inhibitory compound coexisting with tankyrase in a state before the crystallization, and subjected to X-ray diffraction (co-crystallization). Whether the tankyrase inhibitory compound is a dual-type compound can be determined by preparing a crystal under any one of the above-described conditions, and performing X-ray diffraction.
X-ray diffraction data of a tankyrase-2 crystal soaked with the compound prepared in Compound Example 1 was measured with BL26B2 Beam Line in a large synchrotron radiation facility Spring-8 (Sayo-gun, Hyogo). The wavelength of the X-ray was 1.000 Å, and MX-225 (Rayonix, LLC) was used as a detector. The diffraction data was treated with XDS (Kabsch, 2010) and the CCP4 program (Winn et al., 2011).

Take `O=c1[nH]c(N2CCC3(CC2)CN(CCO)c2cc(F)cc(F)c23)nc2c1CCCC2` [compound 1, 2-[4,6-Difluoro-1-(2-hydroxyethyl)spiro [indolin-3,4′-piperidin]-1′-yl]-5,6,7,8-tetrahydroquinazolin-4(3H)-one]: the cell survival rate result in experiment [1] is reported as “about 50%”. Moreover, the “binding pocket type by X-ray diffraction” value on tankyrase-2 is recorded as “nicotinamide-type compound which binds to the nicotinamide binding pocket of tankyrase”.
